Results: the supplement of paper PMC11451515

Columns and labels:
[1] = system: SEM cells; assay: cell viability relative to DMSO control; higher = less cytotoxic; conditions: 48 h
Procedure, shortened: (§1)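 In 1536-well plates, 5 μl of leukemia cells were seeded per well: 500 cells/well for NOMO1 or SEM and 1000 cells/well for P12-Ichikawa. Each line had first been adapted for at least four passages in each medium. Library compounds in DMSO were pin-dosed at 11 threefold concentrations between 47 μM and 0.79 nM, and CellTiter-Glo One luminescence was read after 48 h at 37°C. Viability is a per-plate percentage relative to DMSO wells, with cell-free wells as background.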

[2] = system: NOMO1; assay: AUC of viability dose-response curve (% viability x log10 dose units); higher = less sensitive; conditions: 48 h
Procedure, shortened: (§2)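 Area under the curve was integrated by trapezoidal rule from a log-logistic fit of normalised viability, with curves exceeding full viability scaled and quality-control failures removed. The fit had four parameters over log10 doses. Viability came from CellTiter-Glo One luminescence, normalised per plate to DMSO and cell-free wells, after leukemia cells adapted to each medium (500 or 1000 cells/well, 1536-well plates) were exposed to library compounds in DMSO for 48 h at 37°C. The 11 threefold doses ran from 47 μM to 0.79 nM.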

[3] = system: P12-Ichikawa; assay: as above; conditions: 48 h
Procedure, shortened: as §2

[4] = system: SEM cells; assay: as above; conditions: 48 h
Procedure, shortened: as §2

[5] = system: NOMO1; assay: cell viability relative to DMSO control; higher = less cytotoxic; conditions: HPLM + 10% dialyzed FBS, 48 h
Procedure, shortened: as §1

O=C(Nc1nc2cccc(-c3ccc(CN4CC[S+](=O)([O-])CC4)cc3)n2n1)C1CC1
cell viability [%], [1]
Conditions | RPMI 5 mM glucose + 10% FBS | RPMI 5 mM glucose + 10% dialyzed FBS
0.000781 µM | 111 | 120
0.00234 µM | 133 | 125
0.00702 µM | 120 | 109
0.0211 µM | 124 | 126
0.0632 µM | 136 | 130
0.19 µM | 146 | 152
0.569 µM | 130 | 133
1.71 µM | 121 | 124
5.12 µM | 103 | 90.1
15.4 µM | 107 | 94.6
46.1 µM | 21.3 | 31.1

AUC of viability dose-response curve
Conditions | [2] | [3] | [4]
HPLM + 10% dialyzed FBS | 440 | 455 | 441
RPMI 5 mM glucose + 10% FBS | 449 | 454 | 446
RPMI 5 mM glucose + 10% dialyzed FBS | 444 | 455 | 432

OC1=CC(=C(C=C1)\C2=C(O)\C(=O)C3=C(O2)C=C(O)C=C3O)O
Conditions | AUC of viability dose-response curve | cell viability [%]
[2], HPLM + 10% dialyzed FBS | 450 | –
[2], RPMI 5 mM glucose + 10% FBS | 433 | –
[2], RPMI 5 mM glucose + 10% dialyzed FBS | 467 | –
[3], HPLM + 10% dialyzed FBS | 442 | –
[3], RPMI 5 mM glucose + 10% FBS | 444 | –
[3], RPMI 5 mM glucose + 10% dialyzed FBS | 443 | –
[4], HPLM + 10% dialyzed FBS | 461 | –
[4], RPMI 5 mM glucose + 10% FBS | 459 | –
[4], RPMI 5 mM glucose + 10% dialyzed FBS | 465 | –
[5], 0.000781 µM | – | 121
[5], 0.00234 µM | – | 118
[5], 0.00702 µM | – | 138
[5], 0.0211 µM | – | 136
[5], 0.0632 µM | – | 120
[5], 0.19 µM | – | 137
[5], 0.569 µM | – | 132
[5], 1.71 µM | – | 119
[5], 5.12 µM | – | 112
[5], 15.4 µM | – | 106
[5], 46.1 µM | – | 71.5

CC1Cc2ccccc2N1NC(=O)c1ccc(Cl)c([S+](N)(=O)[O-])c1 (configuration not stated)
cell viability [%], [1]
Conditions | HPLM + 10% dialyzed FBS | RPMI 5 mM glucose + 10% dialyzed FBS
0.000781 µM | 111 | 107
0.00234 µM | 108 | 109
0.00702 µM | 104 | 117
0.0211 µM | 106 | 106
0.0632 µM | 94.3 | 102
0.19 µM | 113 | 134
0.569 µM | 128 | 100
1.71 µM | 103 | 97
5.12 µM | 112 | 113
15.4 µM | 116 | 111
46.1 µM | 97.9 | 107

AUC of viability dose-response curve
Conditions | [2] | [3] | [4]
HPLM + 10% dialyzed FBS | 467 | 463 | 474
RPMI 5 mM glucose + 10% FBS | 445 | 473 | 426
RPMI 5 mM glucose + 10% dialyzed FBS | 434 | 452 | 472

Clc1ccc(C(Cn2ccnc2)OCc2c(Cl)cccc2Cl)c(Cl)c1 (configuration not stated)
[1], HPLM + 10% dialyzed FBS
Conditions | cell viability [%]
0.000781 µM | 109
0.00234 µM | 105
0.00702 µM | 121
0.0211 µM | 107
0.0632 µM | 117
0.19 µM | 125
0.569 µM | 130
1.71 µM | 117
5.12 µM | 121
15.4 µM | 114
46.1 µM | 117

AUC of viability dose-response curve
Conditions | [2] | [3] | [4]
HPLM + 10% dialyzed FBS | 466 | 474 | 462
RPMI 5 mM glucose + 10% FBS | 468 | 466 | 471
RPMI 5 mM glucose + 10% dialyzed FBS | 468 | 468 | 467

N[C@@H]1C[C@H]1c1ccccc1
[1], HPLM + 10% dialyzed FBS
Conditions | cell viability [%]
0.000781 µM | 122
0.00234 µM | 115
0.00702 µM | 148
0.0211 µM | 124
0.0632 µM | 107
0.19 µM | 137
0.569 µM | 131
1.71 µM | 119
5.12 µM | 107
15.4 µM | 117
46.1 µM | 109

AUC of viability dose-response curve
Conditions | [2] | [3] | [4]
HPLM + 10% dialyzed FBS | 464 | 437 | 449
RPMI 5 mM glucose + 10% FBS | 468 | 462 | 456
RPMI 5 mM glucose + 10% dialyzed FBS | 465 | 459 | 457

CC(c1cc2ccccc2s1)N(O)C(N)=O (configuration not stated)
[1], HPLM + 10% dialyzed FBS
Conditions | cell viability [%]
0.000781 µM | 112
0.00234 µM | 130
0.00702 µM | 123
0.0211 µM | 118
0.0632 µM | 129
0.19 µM | 136
0.569 µM | 132
1.71 µM | 120
5.12 µM | 119
15.4 µM | 116
46.1 µM | 73.1

AUC of viability dose-response curve
Conditions | [2] | [3] | [4]
HPLM + 10% dialyzed FBS | 474 | 456 | 463
RPMI 5 mM glucose + 10% FBS | 459 | 460 | 459
RPMI 5 mM glucose + 10% dialyzed FBS | 425 | 458 | 448
